Like-named read-outs stand apart in the source and are kept apart here.
What was measured:
[1] = Water activity (Rotronic Hygrolab); format: physicochemical; conditions: water activity at 19.56-19.87 °C
[2] = Ibuprofen lysinate vehicle screening; conditions: ibuprofen lysinate (IBL) in the excipient named; outcome in Comments cell beside
[3] = Ibuprofen vehicle screening (single excipients); format: physicochemical; conditions: for Approx. Percentage of API that Resulted in Precipitate: ibuprofen USP in the excipient named, precipitate within approx. 24 h after cooling to room temperature, * = close to saturation point, only a few crystals
Protocol: Initially, ibuprofen United States Pharmacopeia grade (USP) powder was mixed at room temperature with individual excipients being considered as shown in Table 1. Ibuprofen was incrementally added and mixed until a precipitate was observed. […] Observations were made daily to determine if the mixture would remain a solution or precipitate out within an approximately 24 hour period.

[4] = Text: Different solvent systems such as oils and medium chain triglycerides, solubilizing agents, emulsifying agents (self-emulsifying) and surfactants for the liquid filled capsules were screened for their effectiveness in solubilizing ibuprofen and are listed in Tables 5 to 6.
The screening method involved the following steps:
2. Step T2: the sample was heated using a hot plate and stirrer to facilitate ibuprofen solubility in the vehicle and the samples were left overnight.
3. […] Additional ibuprofen was added by reheating selected T2 solutions until re-crystallization or precipitation was observed.
Observations on whether ibuprofen appeared as dissolved, a suspension (fine suspension) or crystallized (agglomerates) were reported.

Row | Molecule | AW Reading [1] | Approximate Percentage of IBL salt added in powder form to excipient and heated [2] | Approx. Percentage of API that Resulted in Precipitate [3] | Amt of API added [4] | Observation [4] | Approx. Max. Percentage of API in Solution Tested ([3]; ibuprofen USP in the single excipient named, melted in on hot plate, remained in solution approx. 24 h) | Amt of API added ([4]; 24 h) | Observation ([4]; 24 h)
1 | O [Water] | 0.999 | – | – | – | – | – | – | –
2 | OCC(O)CO [Glycerin] | – | 2.2% | 2.5% | 250.0 mg | Turbid (T1) | – | – | –
3 | CC(O)CO (stereo not drawn) [Propylene Glycol] | – | 2.4% | 28 * % | – | – | 17% | 4000.0 mg | Crystallized (T3)
4 | Castor Oil | – | – | – | 257.8 mg | Solidify (T1) | – | – | –

From patent publication US20080075767A1, “IBUPROFEN-CONTAINING LIQUID FILLED HARD CAPSULES” (priority 2006, published 2008)
